Measured values from patent US20240285664A1, “LINE-1 INHIBITORS AS COGNITIVE ENHANCERS” (TRANSPOSON THERAPEUTICS, INC., priority 2021, published 2024).
“Also recorded” adds a separate entry of the source.

Test system: human LINE-1
Assay: Human LINE-1 retrotransposition assay (HeLa cell-based dual-luciferase reporter)
Details: HeLa cells, reporter plasmid pYX017, 72 h incubation, Firefly/Renilla luciferase; read-out: Human LINE-1 IC50 (μM), Human L1 activity inhibition
Experimental: Islatravir and other compounds were tested for inhibition of retrotransposition activity of human LINE-1 in HeLa cells according to the following procedure.
HeLa cervical cancer cells were cultivated at 37° C. in a humidified 5% CO2 incubator in Dulbecco's Modified Eagle's Medium (DMEM)—high glucose, with 4500 mg/L glucose, L-glutamine, sodium pyruvate and sodium bicarbonate (Sigma), supplemented with 10% of heat inactivated fetal bovine serum (Thermo Fisher).
Assays were performed using reporter plasmid pYX017 as described (Xie, et al., 2011) with several modifications. The reporter assay was performed in 96-well white optical bottom plates. HeLa cells were seeded in wells 24 h prior to transfection and compound treatment so that cells were approximately 30% confluent on the day of transfection. Different cell plating densities were tested and a density of 2×10^3 cells was determined to be optimal.
Compounds were resuspended in DMSO. Serial dilutions (1:3) were prepared in DMSO. Medium containing different concentrations of the compounds were prepared by adding 2 μl of the compound dilution to 1 ml of the culture medium. The final concentration of DMSO in the medium was 0.2%.
FuGENE® HD transfection reagent (Promega, E2311, Lot 382574 and Lot 397842) was used to transfect the plasmids into the cells. The transfection reagent: DNA mixture was prepared in OpiMEM (Thermo Fisher) according to manufacturer's instructions. Different ratios of transfection reagent to DNA were tested and a ratio of 3:1 was determined to be optimal. Culture medium was removed from the cells and discarded. The transfection reagent: DNA mixture (5 μl) was mixed with the compound containing medium (100 μl/well) and this was added onto the cells of each well. Cells were incubated at 37° C./5% C02 for different incubation time. A 72 h incubation time was determined to be optimal.
Luciferase reporter activity was quantified with the Dual-Luciferase® Reporter Assay System (Promega) according to manufacturer's instructions for multiwell plates except that cells were lysed directly on the multiwell plate with 30 μl of the passive lysis buffer (PLB) for 20 min at room temperature, with gentle shaking to ensure complete cell lysis.
Firefly and Renilla luciferase signals were measured using a SpectraMax i3x Multi-Mode Microplate Reader. Integration times of 100 ms and 10 ms were used to measure the Firefly and Renilla signals respectively. Relative L1 activity is calculated as Firefly/Renilla*1000 or Firefly/Renilla*10,000. Dose response inhibition data were fit to a four parameter logistic equation using non-linear regression (using Graphpad Prism 8), to determine IC50 values for each inhibitor.

IC50 [µM] | Compound
2.77 | C[C@H](Cn1cnc2c(N)ncnc21)OCP(=O)(O)O [Tenofovir]

Same assay, conditions: HeLa cells, summary of Table 1

Compound | human LINE-1 inhibitor activity compared to the other reverse transcriptase inhibitors tested (in words)
C#C[C@@]1(CO)C=C[C@H](n2cc(C)c(=O)[nH]c2=O)O1 [Censavudine, 4′-ethynylstavudine] | unexpectedly better human LINE-1 inhibitor activity; also recorded: surprisingly potent
C#C[C@]1(CO)O[C@@H](n2cnc3c(N)nc(F)nc32)C[C@@H]1O [Islatravir, 2′-deoxy-4′-ethynyl-2-fluoroadenosine] | unexpectedly better human LINE-1 inhibitor activity

Same assay, conditions: HeLa cells, summary of Table 1; listed as islatravir

Compound | human LINE-1 inhibitor activity compared to the other reverse transcriptase inhibitors tested (in words)
C#C[C@]1(CO)O[C@@H](n2cnc3c(N)nc(F)nc32)C[C@@H]1O [Islatravir, 2′-deoxy-4′-ethynyl-2-fluoroadenosine] | surprisingly potent

Same assay, conditions: Homo sapiens; HeLa cells, reporter plasmid pYX017, 72 h incubation, Firefly/Renilla luciferase; read-out: Human LINE-1 IC50 (μM), Human L1 activity inhibition

Compound | IC50 [µM]
O=C(NCc1c(F)cc(F)cc1F)c1cn2c(c(O)c1=O)C(=O)N1[C@H]3CC[C@H](C3)O[C@@H]1C2 [Bictegravir] | > 12.4
C#C[C@]1(CO)O[C@@H](n2ccc(N)nc2=O)C[C@@H]1O [Cpd. No. 7, 4-amino-1-((2R,4S,5R)-5-ethynyl-4-hydroxy-5 (hydroxymethyl)tetrahydrofuran-2-yl)pyrimidin-2(1H)-one] | 0.0091
C#C[C@]1(CO)O[C@@H](n2cnc3c(N)ncnc32)C[C@@H]1O [Cpd. No. 23] | > 50
CC[C@]1(CO)O[C@@H](n2cc(C)c(=O)[nH]c2=O)C[C@@H]1O [Cpd. No. 26] | 2
C[C@@H]1CCO[C@H]2Cn3cc(C(=O)NCc4ccc(F)cc4F)c(=O)c(O)c3C(=O)N12 [Dolutegravir sodium] | > 9.38
O=C1Nc2ccc(Cl)cc2[C@@](C#CC2CC2)(C(F)(F)F)O1 [Efavirenz] | > 0.25
Cc1ccnc2c1NC(=O)c1cccnc1N2C1CC1 [Nevirapine] | > 50
Cc1nnc(C(=O)NC(C)(C)c2nc(C(=O)NCc3ccc(F)cc3)c(O)c(=O)n2C)o1 [Raltegravir potassium] | > 9.86
Cc1cc(/C=C/C#N)cc(C)c1Nc1ccnc(Nc2ccc(C#N)cc2)n1 [Rilpivirine] | > 15.1

Further lines, results first:

IC50 [µM] | Compound
0.81 | Cc1cn([C@H]2C[C@H](N=[N+]=[N-])[C@@H](CO)O2)c(=O)[nH]c1=O [Zidovudine]
0.75 | Cc1cn([C@H]2C=C[C@@H](CO)O2)c(=O)[nH]c1=O [Stavudine]
0.64 | Nc1ccn([C@@H]2CS[C@H](CO)O2)c(=O)n1 [Lamivudine]
0.489 | C#C[C@]1(CO)O[C@@H](n2cc(Br)c(O)nc2=O)C[C@@H]1O [Cpd. No. 4]
0.393 | C#C[C@]1(CO)O[C@@H](n2cc(C)c(O)nc2=O)C[C@@H]1O [Cpd. No. 2]
0.2 | CC(C)OC(=O)OCOP(=O)(CO[C@H](C)Cn1cnc2c(N)ncnc21)OCOC(=O)OC(C)C [Tenofovir disoproxil]
0.09 | Nc1nc(=O)n([C@@H]2C=C[C@H](CO)O2)cc1F [Elvucitabine]
0.07 | C#C[C@@]1(CO)C=C[C@H](n2cc(C)c(=O)[nH]c2=O)O1 [Censavudine, 4′-ethynylstavudine]
0.0209 | C#C[C@]1(CO)O[C@@H](n2cc(F)c(N)nc2=O)C[C@@H]1O [Cpd. No. 9]
0.011 | C=C[C@]1(CO)O[C@@H](n2cnc3c(N)nc(F)nc32)C[C@@H]1O [Cpd. No. 20]
0.008 | C=C[C@]1(CO)O[C@@H](n2ccc(N)nc2=O)C[C@@H]1O [Cpd. No. 24]
0.003 | CC[C@]1(CO)O[C@@H](n2cnc3c(O)nc(N)nc32)C[C@@H]1O [Cpd. No. 27]
0.00051 | C#C[C@]1(CO)O[C@@H](n2cnc3c(O)nc(N)nc32)C[C@@H]1O [Cpd. No. 13]
